Results: BindingDB's records for doi:10.7270/Q2Q81BH4 (Nmmlsc, 2009)

Target: T1, Mitogen-activated protein kinase kinase kinase 3 (Homo sapiens, UniProt Q99759)
T1 sequence (Q99759 whole entry): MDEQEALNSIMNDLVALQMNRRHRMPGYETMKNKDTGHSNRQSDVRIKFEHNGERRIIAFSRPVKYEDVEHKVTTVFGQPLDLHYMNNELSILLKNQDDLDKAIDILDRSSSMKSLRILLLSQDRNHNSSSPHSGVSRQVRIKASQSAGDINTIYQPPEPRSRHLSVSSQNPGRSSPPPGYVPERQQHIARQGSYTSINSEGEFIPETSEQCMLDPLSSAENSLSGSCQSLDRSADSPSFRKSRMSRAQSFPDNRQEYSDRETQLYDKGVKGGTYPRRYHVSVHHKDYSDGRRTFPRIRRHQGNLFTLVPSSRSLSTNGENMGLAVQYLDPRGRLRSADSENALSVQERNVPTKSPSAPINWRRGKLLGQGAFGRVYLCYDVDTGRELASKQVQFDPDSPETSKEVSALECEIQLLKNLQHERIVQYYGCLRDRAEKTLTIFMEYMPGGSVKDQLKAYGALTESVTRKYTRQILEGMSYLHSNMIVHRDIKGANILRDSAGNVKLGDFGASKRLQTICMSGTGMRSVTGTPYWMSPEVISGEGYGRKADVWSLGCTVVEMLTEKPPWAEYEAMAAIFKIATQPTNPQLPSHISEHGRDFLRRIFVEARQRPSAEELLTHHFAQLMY
Assay: MEKK3–MEK5 PB1 domain interaction inhibitors – multiplex assay, wild-type MEKK3, SAR follow-up (AID 2145)

Structure (SMILES) | EC50 [µM] | EC50 (inactive by the depositor's call) [µM]
c1ccc(-c2nnc3sc(C4CCCCCC4)nn23)nc1 | > 30 | –
c1csc(Cc2nn3c(-c4ccncc4)nnc3s2)c1 | > 30 | –
c1coc(-c2nnc3sc(C4CCCCCC4)nn23)c1 [6-cycloheptyl-3-(2-furanyl)-[1,2,4]triazolo[3,4-b][1,3,4]thiadiazole] | > 30 | –
c1coc(-c2nnc3sc(C4CCCCC4)nn23)c1 [6-cyclohexyl-3-(2-furanyl)-[1,2,4]triazolo[3,4-b][1,3,4]thiadiazole] | > 30 | –
c1c[nH]c(-c2nn3c(-c4ccco4)nnc3s2)c1 [(6Z)-3-(2-furanyl)-6-(2-pyrrolylidene)-5H-[1,2,4]triazolo[3,4-b][1,3,4]thiadiazole] | > 30 | –
c1ccc(-c2nnc3sc(C4CCCCC4)nn23)nc1 [VU0364704-1] | > 30 | –

Now from value to compound:

EC50 [µM] | EC50 (inactive by the depositor's call) [µM] | Structure (SMILES)
> 30 | – | c1ccc(-c2nnc3sc(-c4ccc[nH]4)nn23)nc1
> 30 | – | COc1cc([N+](=O)[O-])ccc1-c1nn2c(-c3ccccn3)nnc2s1
> 30 | – | COc1cccc(-c2nn3c(-c4ccccn4)nnc3s2)c1
> 30 | – | COc1cc([N+](=O)[O-])ccc1-c1nn2c(-c3ccco3)nnc2s1 [3-(2-furanyl)-6-(2-methoxy-4-nitrophenyl)-[1,2,4]triazolo[3,4-b][1,3,4]thiadiazole]
> 30 | – | COc1ccc(-c2nn3c(-c4ccccn4)nnc3s2)cc1OC [6-(3,4-dimethoxyphenyl)-3-(2-pyridinyl)-[1,2,4]triazolo[3,4-b][1,3,4]thiadiazole]
> 30 | – | CCOc1cccc(-c2nn3c(-c4ccco4)nnc3s2)c1 [6-(3-ethoxyphenyl)-3-(2-furanyl)-[1,2,4]triazolo[3,4-b][1,3,4]thiadiazole]
– | 1.1 | CCOc1cccc(-c2nn3c(-c4cccs4)nnc3s2)c1 [6-(3-ethoxyphenyl)-3-thiophen-2-yl-[1,2,4]triazolo[3,4-b][1,3,4]thiadiazole]
